From patent publication US4876277A, “Antimicrobial/antifungal compositions” (Plant Cell Research Institute, Inc., priority 1987, dated 1989)
Values after ≈ are worked out from the molar mass of the structure shown. Read-outs that look alike come from different tables or passages of the source.

How the values were obtained:
apples = settings: in vivo; cited from earlier work
fish = settings: in vivo; cited from earlier work
Erysiphe graminis = test: in vivo fungicide screen: wheat powdery mildew (WPM); settings: for % compared to control, WPM: 100 ppm, foliar spray before infection
two-spotted spider mite = test: insecticide activity: two-spotted spider mite; assay type: in vivo; settings: 150 to 600 ppm
Puccinia recondita = test: in vivo fungicide screen: wheat leaf rust (WLR); settings: for % compared to control, WLR: 100 ppm, foliar spray before infection
Pellicularia filamentosa = test: in vivo fungicide screen: rice sheath blight (RSB); settings: for % compared to control, RSB: 100 ppm, foliar spray before infection
southern corn rootworm = test: insecticide activity: southern corn rootworm; assay type: in vivo; settings: 150 to 600 ppm
signal grass = test: herbicide screening: signal grass; settings: in vivo
average monocots = test: herbicide screening: average monocots; settings: in vivo
From the text: (§1) As noted above the compounds are ineffective as herbicides against one or more of the following weeds: average dicots, cocklebur, morning glory, pigweed, smartweed, velvet leaf, average monocots, barnyard grass, green foxtail, johnson grass, yellow nutsedge and the wild oat in both pre-emergent and post-emergent screening tests, at application rates of 2 lbs/acre for Compound 4, and 4 lbs/acre for Compound 5.

[1] = tested on: Xanthomonas campestris pv. campestris; test: ED50 on bacteria, liquid nutrient medium: X. campestris pv. campestris; assay type: cell-based; settings: 48 h, Example 7, two days, read-out: ED50 concentration, X.C. pv. campestris
velvet leaf = test: herbicide screening: velvet leaf; settings: in vivo
From the text: as §1

[2] = tested on: Pseudoperonospora cubensis; test: in vivo fungicide screen: cucumber downy mildew (CDM); settings: for % compared to control, CDM: 100 ppm, foliar spray before infection
Piricularia oryzae = assay type: in vivo
[3] = tested on: southern root knot nematode; test: insecticide activity: southern root knot nematode; assay type: in vivo; settings: 150 to 600 ppm
Xanthomonas campestris = test: activity on Xanthomonas campestris; assay type: cell-based
Alternaria brassicicola = test: ED50 on fungi, mycelial growth on V-8 juice agar: Alternaria brassicicola; assay type: cell-based; settings: Example 4, 72 hrs, read-out: ED50 concentration, AB
Pyrenochaeta terrestris = test: ED50 on fungi, mycelial growth on V-8 juice agar: Pyrenochaeta terrestris; assay type: cell-based; settings: Setophoma terrestris, Example 5, 72 hrs, read-out: ED50 concentration, PT
[4] = tested on: Agrobacterium tumefaciens; test: ED50 on bacteria, liquid nutrient medium: Agrobacterium tumefaciens; assay type: cell-based; settings: 48 h, Example 9, two days, read-out: ED50 concentration, AT
mexican bean beetle = test: insecticide activity: mexican bean beetle; assay type: in vivo; settings: 150 to 600 ppm
Rhizobium japonicum = test: ED50 on bacteria, liquid nutrient medium: Rhizobium japonicum; assay type: cell-based; settings: Bradyrhizobium japonicum, 48 h, Example 10, two days, read-out: ED50 concentration, RJ
[5] = tested on: Helminthosporium carbonum; test: ED50 on fungi, mycelial growth on V-8 juice agar: Helminthosporium carbonum; assay type: cell-based; settings: Bipolaris zeicola, Example 3, 72 hrs, read-out: ED50 concentration, HC
Phytophtora infestans = assay type: in vivo
Alternaria chrysanthemi = test: ED50 on fungi, mycelial growth on V-8 juice agar: Alternaria chrysanthemi; assay type: cell-based; settings: Example 6, 72 hrs, read-out: ED50 concentration, AC
green peach aphid = test: insecticide activity: green peach aphid; assay type: in vivo; settings: 150 to 600 ppm
green foxtails = test: herbicide screening: green foxtails; settings: in vivo
From the text: as §1

pigweed = test: herbicide screening: pigweed; settings: in vivo
From the text: as §1

average dicots = test: herbicide screening: average dicots; settings: in vivo
From the text: as §1

weeds = test: pre-emergent and post-emergent herbicide screening tests; assay type: in vivo
From the text: as §1

southern armyworm = test: insecticide activity: southern armyworm; assay type: in vivo; settings: 150 to 600 ppm
[6] = tested on: haploid lab strain from Yeast I; test: ED50 on yeast, liquid nutrient medium: Yeast II; assay type: cell-based; settings: Saccharomyces cerevisiae, 48 h, read-out: ED50 concentration, Yeast-II
[7] = tested on: Saccharomyces cerevisiae from Universal Foods; test: ED50 on yeast, liquid nutrient medium: Yeast I; assay type: cell-based; settings: 48 h, read-out: ED50 concentration, Yeast-I
Cladosporium herbarum = test: ED50 on fungi, mycelial growth on V-8 juice agar: Cladosporium herbarum; assay type: cell-based; settings: Example 2, 72 hrs, read-out: ED50 concentration, CH
morning glory = test: herbicide screening: morning glory; settings: in vivo
From the text: as §1

wild oat = test: herbicide screening: wild oat; settings: in vivo
From the text: as §1

[8] = tested on: Xanthomonas campestris pv. carotae; test: ED50 on bacteria, liquid nutrient medium: X. campestris pv. carotae; assay type: cell-based; settings: 48 h, read-out: ED50 concentration, X.C. pv. carotae
cockleburr = test: herbicide screening: cocklebur; settings: in vivo
From the text: as §1

johnson grass = test: herbicide screening: johnson grass; settings: in vivo
From the text: as §1

barnyard grass = test: herbicide screening: barnyard grass; settings: in vivo
From the text: as §1

smartweed = test: herbicide screening: smartweed; settings: in vivo
From the text: as §1

yellow nutsedge = test: herbicide screening: yellow nutsedge; settings: in vivo
From the text: as §1

houseflies = settings: in vivo; cited from earlier work
cockroaches = settings: in vivo; cited from earlier work
flour beetles = settings: in vivo; cited from earlier work
[9] = 100 ppm, foliar spray before infection

Compound: CCCCNC(=O)n1c(NC(=O)OC)nc2ccccc21 [BENOMYL, methyl 1-(butylcarbamoyl)-2-benzimidazolecarbonate]
- fruit finish of apples (apples): apples do not express fine fruit finish
- toxicity to fish (fish): toxic to fish
- activity preventing infection of wheat by Erysiphe graminis (Erysiphe graminis; in the range of 38-300 ppm): 100%

Compound: CC(C)OC(=O)C(C(=O)OC(C)C)=C1SCCS1 [FUJI-ONE, diissopropyl-1,3-dithiolau-2-ylidane malonate]
- activity preventing infection of wheat by Erysiphe graminis (Erysiphe graminis; at up to 300 ppm): 0%

Compound: MANCOZEB
- activity preventing infection of wheat by Erysiphe graminis (Erysiphe graminis; at up to 300 ppm): 0%

Compound: C=CCOC1=NS(=O)(=O)c2ccccc21 [ORYZEMATE]
- activity preventing infection of wheat by Erysiphe graminis (Erysiphe graminis; at up to 300 ppm): 0%

Compound: C=CCc1cc(OC)c(O)c2c1OCO2 [Compound 4, 6-methoxy-2,3-methylenedioxy-4-allyl phenol]
- insecticide activity, two-spotted spider mite (two-spotted spider mite): ineffective
- % compared to control, WLR (Puccinia recondita): 0%
- % compared to control, RSB (Pellicularia filamentosa): 0%
- insecticide activity, southern corn rootworm (southern corn rootworm): ineffective
- herbicide effect, signal grass (signal grass): ineffective
- herbicide effect, average monocots (average monocots): ineffective
- IC50 [1]: 10 µg/mL (≈ 48 µM)
- herbicide effect, velvet leaf (velvet leaf): ineffective
- % compared to control, CDM [2]: 0%
- % compared to control, RB (Piricularia oryzae; [9]): 0%
- insecticide activity, southern root knot nematode [3]: ineffective
- effect on Xanthomonas campestris (Xanthomonas campestris): effective
- IC50 (Alternaria brassicicola): 8 µg/mL (≈ 38.4 µM)
- IC50 (Pyrenochaeta terrestris): 10 µg/mL (≈ 48 µM)
- IC50 [4]: > 200 µg/mL
- % compared to control, WPM (Erysiphe graminis): 75%
- insecticide activity, mexican bean beetle (mexican bean beetle): ineffective
- IC50 (Rhizobium japonicum): > 500 µg/mL
- IC50 [5]: 18 µg/mL (≈ 86.4 µM)
- % compared to control, TLB (Phytophtora infestans; [9]): 0%
- IC50 (Alternaria chrysanthemi): 10 µg/mL (≈ 48 µM)
- insecticide activity, green peach aphid (green peach aphid): ineffective
- herbicide effect, green foxtails (green foxtails): ineffective
- herbicide effect, pigweed (pigweed): ineffective
- herbicide effect, average dicots (average dicots): ineffective
- herbicide effect against one or more of the listed weeds (weeds; 2 lbs/acre): ineffective
- insecticide activity, southern armyworm (southern armyworm): ineffective
- IC50 ([6]; Example 12, liquid medium, two days): > 500 µg/mL
- IC50 ([7]; Example 11, liquid medium, two days): > 500 µg/mL
- IC50 (Cladosporium herbarum): 16.5 µg/mL (≈ 79.2 µM)

Compound: C=CCc1cc(OC)c(OC)c2c1OCO2 [Compound 5, 4,5-dimethoxy-2,3-methylenedioxy-1-allyl benzene]
- % compared to control, WLR (Puccinia recondita): 0%
- effectiveness against wheat leaf rust (Puccinia recondita; in vivo): substantially ineffective
- % compared to control, RSB (Pellicularia filamentosa): 0%
- effectiveness against rice sheath blight (Pellicularia filamentosa; in vivo): substantially ineffective
- herbicide effect, morning glory (morning glory): ineffective
- herbicide effect, average monocots (average monocots): ineffective
- IC50 [1]: 10 µg/mL (≈ 45 µM)
- herbicide effect, velvet leaf (velvet leaf): ineffective
- % compared to control, CDM [2]: 0%
- effectiveness against cucumber downy mildew ([2]; in vivo): substantially ineffective
- % compared to control, RB (Piricularia oryzae; in vivo): 0%
- effectiveness against rice blast (Piricularia oryzae; in vivo): substantially ineffective
- herbicide effect, wild oat (wild oat): ineffective
- IC50 (Alternaria brassicicola): 8 µg/mL (≈ 36 µM)
- IC50 (Pyrenochaeta terrestris): 10 µg/mL (≈ 45 µM)
- IC50 [8]: 10 µg/mL (≈ 45 µM)
- IC50 [4]: > 200 µg/mL
- % compared to control, WPM (Erysiphe graminis): 95%
- IC50 (Rhizobium japonicum): > 500 µg/mL
- IC50 [5]: 16 µg/mL (≈ 72 µM)
- % compared to control, TLB (Phytophtora infestans; in vivo): 0%
- effectiveness against tomato leaf blight (Phytophtora infestans; in vivo): substantially ineffective
- IC50 (Alternaria chrysanthemi): 10 µg/mL (≈ 45 µM)
- herbicide effect, green foxtails (green foxtails): ineffective
- herbicide effect, pigweed (pigweed): ineffective
- herbicide effect, cockleburr (cockleburr): ineffective
- herbicide effect, average dicots (average dicots): ineffective
- herbicide effect against one or more of the listed weeds (weeds; 4 lbs/acre): ineffective
- herbicide effect, johnson grass (johnson grass): ineffective
- IC50 [6]: > 500 µg/mL
- herbicide effect, barnyard grass (barnyard grass): ineffective
- IC50 [7]: > 500 µg/mL
- herbicide effect, smartweed (smartweed): ineffective
- IC50 (Cladosporium herbarum): 16 µg/mL (≈ 72 µM)
- herbicide effect, yellow nutsedge (yellow nutsedge): ineffective

Compound: CCOP(=O)(Sc1ccccc1)Sc1ccccc1 [EDIFENPHOS, O-ethyl-S,S-diphenyl-dithiophosphate]
- toxicity to fish (fish): toxic to fish
- activity preventing infection of wheat by Erysiphe graminis (Erysiphe graminis; in the range of 75-300 ppm): 100%

Compound: CC(C)(C)C(=O)C(Oc1ccc(Cl)cc1)n1cncn1 (stereo not drawn) [BAYLETON]
- toxicity to fish (fish): toxic to fish
- activity preventing infection of wheat by Erysiphe graminis (Erysiphe graminis; in vivo): 100%

Compound: CCCc1cc2c(c(OC)c1OC)OCO2 [propyl analog of dillapiole]
- synergic with pyrethrins against houseflies (houseflies): effective synergic
- synergic with pyrethrins against cockroaches (cockroaches): effective synergic
- synergic with pyrethrins against flour beetles (flour beetles): effective synergic
